These are literature values, as cited in US20090005340A1, “Bioactive Agents Produced By Submerged Cultivation of a Basidiomycete Cell” (MediMush A/S, priority 2005, published 2009).

For this data set, the system named is cytochrome P450s (CYPs).

Turning to Lentinan, the “expression of cytochrome P450s (CYPs)” value is “suppress the expression”.
